Measured values from the SangsterLogP compilation.

| Compound | logP |
| --- | --- |
| Cc1ccc(N=C=S)cc1 | 3.9 |
| N#Cc1cccc(N=C=S)c1 | 3.13 |
| CCCCN=C=S | 2.92 |
| O=[N+]([O-])c1ccc(N=C=S)cc1 | 3.55 |
| CC(C)CN=C=S | 2.82 |
| CCC(C)N=C=S (stereo not drawn) | 2.81 |
| S=C=Nc1cccc(Cl)c1 | 3.36 |
| Oc1cccc(N=C=S)c1 | 3.23 |
| S=C=Nc1cccc(Br)c1 | 4.12 |
| CN(C)c1ccc(N=C=S)cc1 | 3.96 |
| S=C=Nc1ccc(Cl)cc1 | 3.91 |
| N#Cc1ccc(N=C=S)cc1 | 2.65 |
| COc1cccc(N=C=S)c1 | 3.68 |
| O=C(O)c1cccc(N=C=S)c1 | 2.4 |
| S=C=Nc1ccc(I)cc1 | 4.22 |
| COc1ccc(N=C=S)cc1 | 3.58 |
| CN=C=S | 0.94 |
| O=C(O)c1ccc(N=C=S)cc1 | 2.44 |
